# Measured values reported in patent US20220363689A1, “INHIBITOR OF BTK AND MUTANTS THEREOF” (Newave Pharmaceutical Inc., priority 2019, published 2022).
# pIC50: −log10 of the molar value. Like-named read-outs stand apart in the source and are kept apart here.
# Key:
# [1] = target: T1, WT BTK (Homo sapiens, UniProt Q06187); assay: Caliper-based kinase assay, WT BTK; type: biochemical; details: 0.5 nM enzyme, ATP 16 μM, room temperature 3 h; read-out: WT BTK IC50 (nM) (irreversible inhibition)
# Procedure: A Caliper-based kinase assay (Caliper Life Sciences, Hopkinton, Mass.) was used to measure inhibition of WT and […] Btk kinase activity of a compound of the present disclosure. […] The reaction was then terminated with EDTA, final concentration 20 mM and the phosphorylated reaction product was quantified on a Caliper Desktop Profiler (Caliper LabChip 3000).
# [2] = target: BTK (Homo sapiens, UniProt Q06187); assay: Caliper-based kinase assay, Cys-containing kinase panel: BTK; type: biochemical; details: for pIC50: Cys-481 homologous kinase panel
# BTK, sequence (Q06187 whole entry): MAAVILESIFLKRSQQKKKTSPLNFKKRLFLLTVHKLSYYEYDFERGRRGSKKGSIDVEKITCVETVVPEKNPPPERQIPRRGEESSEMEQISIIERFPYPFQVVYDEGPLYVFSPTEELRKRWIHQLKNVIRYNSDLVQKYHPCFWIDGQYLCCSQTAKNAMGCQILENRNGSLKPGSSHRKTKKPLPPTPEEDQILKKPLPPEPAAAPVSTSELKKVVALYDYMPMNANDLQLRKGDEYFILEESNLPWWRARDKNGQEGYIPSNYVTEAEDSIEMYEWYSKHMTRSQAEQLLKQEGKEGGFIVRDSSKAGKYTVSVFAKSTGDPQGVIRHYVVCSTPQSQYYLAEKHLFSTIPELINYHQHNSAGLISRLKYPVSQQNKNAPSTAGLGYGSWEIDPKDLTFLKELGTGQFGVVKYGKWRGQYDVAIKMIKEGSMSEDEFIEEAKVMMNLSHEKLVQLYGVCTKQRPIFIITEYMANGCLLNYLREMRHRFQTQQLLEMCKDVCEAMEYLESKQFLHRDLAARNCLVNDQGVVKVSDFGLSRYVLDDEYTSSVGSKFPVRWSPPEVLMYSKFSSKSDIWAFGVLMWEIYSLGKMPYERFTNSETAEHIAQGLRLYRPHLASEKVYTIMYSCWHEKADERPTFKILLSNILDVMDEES
# Source text: A Caliper-based kinase assay (Caliper Life Sciences, Hopkinton, Mass.) was used to measure inhibition of kinase activity of compounds of the present disclosure.
# [3] = target: T1, WT BTK; assay: In vitro dialysis assay (irreversibility assay), WT BTK; type: biochemical; details: reversible or irreversible/covalent inhibition after 24 h dialysis
# Summary of the method: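 Compound-BTK complex was dialyzed 24 hr against […] (cumulative factor >160,000×). Residual activity was then […] and 1 mM substrate peptide and compared with non-dialyzed samples. Buffer: 100 mM HEPES pH 7.5, 5 mM MgCl2, 1 mM DTT, BSA, Triton X-100.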
# [4] = test system: liver cancer cell line HepG2; assay: HepG2 in vitro liver toxicity assay (ATPlite); type: cell-based; details: Homo sapiens, HepG2, about 72 hours incubation
# Procedure: Cell antiproliferation is assayed by PerkinElmer ATPlite™ Luminescence Assay System. Briefly, the liver cancer cell line HepG2 are plated at a density of about 1×10^4 cells per well in Costar 96-well plates, and are incubated with different concentrations of compounds for about 72 hours in medium supplemented with 5% FBS. One lyophilized substrate solution vial is then reconstituted by adding 5 mL of substrate buffer solution, and is agitated gently until the solution is homogeneous. About 50 μL of mammalian cell lysis solution is added to 100 μL of cell suspension per well of a microplate, and the plate is shaken for about five minutes in an orbital shaker at −700 rpm. This procedure is used to lyse the cells and to stabilize the ATP. Next, 50 μL substrate solution is added to the wells and microplate is shaken for five minutes in an orbital shaker at −700 rpm. Finally, the luminescence is measured by a PerkinElmer TopCount® Microplate Scintillation Counter. Such assays, carried out with a range of doses of test compounds, allow the determination of the cellular anti-antiproliferative IC50 of the compounds of the present invention.
# [5] = Mice PK study; type: in vivo; details: plasma, CD-1 mouse, po, 10 mg/kg; for half-life: read-out: t ½ (converted)
# Procedure: The pharmacokinetics of compounds were evaluated in CD-1 mouse via Intravenous and Oral Administration. The IV dose was administered as a slow bolus in the Jugular vein, and oral doses were administered by gavage. The formulation for IV dosing is 5% DMSO in 20% HPBCD in water, and the PO formulation is 2.5% DMSO, 10% EtOH, 20% Cremphor EL, 67.5% D5W. The PK time point for the IV arm was 5, 15, 30 min, 1, 2, 4, 6, 8, 12, 24 hours post dose, and for PO arm was 15, 30 min, 1, 2, 4, 6, 8, 12, 24 hours post dose. Approximately 0.03 mL blood was collected at each time point. Blood of each sample was transferred into plastic micro centrifuge tubes containing EDTA-K2 and plasma was collected within 15 min by centrifugation at 4000 g for 5 minutes in a 4° C. centrifuge. Plasma samples were stored in polypropylene tubes. The samples were stored in a freezer at −75±15° C. prior to analysis. Concentrations of compounds in the plasma samples were analyzed using a LC-MS/MS method. WinNonlin (Phoenix™, version 6.1) or other similar software was used for pharmacokinetic calculations. The following pharmacokinetic parameters were calculated, whenever possible from the plasma concentration versus time data: IV administration: C0, CL, Vd, T1/2, AUCinf, AUClast, MRT, Number of Points for Regression; PO administration: Cmax, Tmax, T1/2, AUCinf, AUClast, F %, Number of Points for Regression. The pharmacokinetic data was described using descriptive statistics such as mean, standard deviation. Additional pharmacokinetic or statistical analysis was performed at the discretion of the contributing scientist, and was documented in the data summary. For comparison purpose, the PK results of oral dosing of po, 25 mg/kg of Acalbrutinib, a FDA approved BTK inhibitor, were obtained using the same methods and shown in the Table below.
# [6] = test system: CD69 surface expression in primary human B cells; assay: Inhibition of CD69 surface expression in primary human B cells; type: cell-based; details: B-cell; 1 h pre-incubation, anti-human IgM stimulation 19 hr
# Procedure: Primary human B cells (CD20+, purified by negative selection) were obtained from StemCell Technologies. Prior to experiment, the cells were thawed and washed two times with RPMI growth media supplemented with 10% FBS. The cells were seeded into 24 well plate at a density of 4×10^5 cells/per a well in a total volume of 500 uL. 6 hr after plating, serial dilutions of NW-1-96 were added. Control wells received DMSO only (0.1%). After 1 h pre-incubation with compound, the cells were stimulated for 19 hr with goat anti-human IgM F(ab′)2 (10 μg/mL; ThermoFisher). After stimulation, the cells were fixed by addition of paraformaldehyde to a final concentration of 4% and incubated for 20 min at room temperature. Fixed cells were collected into Eppendorf tubes, centrifuged at 1,000×g and washed three times with 50 mM Tris pH8.0, 100 mM NaCl. After washes, the cells were re-suspended in 100 uL of 50 mM Tris pH8.0, 100 mM NaCl, 0.1% BSA supplemented with 5 ug/mL of FITC-conjugated anti-CD69 antibody (ThermoFisher) and incubated at room temperature for 2 hr. The cells were next washed 3 times with 10 volumes of 50 mM Tris pH8.0, 100 mM NaCl, 0.1% BSA and re-suspended in 150 ul of the same buffer. […] CD69 staining was detected on Synergy Neo2 fluorescent plate reader: […].
# T1 sequence (Q06187 whole entry): as above
Compound,IC50 [1],pIC50 [2],Conclusion (WT BTK) [3],pIC50 ([4]; read-out: HepG2 IC50),AUC [5],half-life [5],pIC50 [6],"Selectivity among kinases that contain a Cys homologous to Cys-481 in BTK ([2]; BTK versus BMX, TEC, TXK, BLK, HER4, EGFR, HER2)","pIC50 ([4]; another experiment, read-out: HepG2 IC50 (another experiment))"
"C=CC(=O)Nc1cc(Nc2nc(-c3ccnc(N4CCn5c(cc6c5CC(C)(C)C6)C4=O)c3CO)cn(C)c2=O)ccc1N1CCN(C2CCOCC2)C[C@H]1C(F)(F)F [Example 48-S, N-(5-[[6-(2-[4,4-dimethyl-9-oxo-1,10-diazatricyclo[6.4.0.0^[2,6]]dodeca-2(6),7-dien-10-yl]-3-(hydroxymethyl)pyridin-4-yl)-4-methyl-3-oxopyrazin-2-yl]amino]-2-[(2S)-4-(oxan-4-yl)-2-(trifluoromethyl)piperazin-1-yl]phenyl)prop-2-enamide]",0.08 nM,10.00,Irreversible/covalent inhibition,4.19,11600 ng·h/mL,1 h,,,
"CC(C)(/C=C(\C#N)C(=O)N1CCC[C@@H](n2nc(-c3ccc(Oc4ccccc4)cc3F)c3c(N)ncnc32)C1)N1CCN(C2COC2)CC1 [PRN-1008, reference compound]",,,,4.40,,,6.96,,
"C=CC(=O)Nc1cc(Nc2nc(-c3ccnc(N4CCc5c(sc6c5CCCC6)C4=O)c3CO)cn(C)c2=O)ccc1N1CCN(C2CCOCC2)C[C@H]1C(F)(F)F [Example 55-S, N-[5-([6-[3-(hydroxymethyl)-2-[6-oxo-8-thia-5-azatricyclo[7.4.0.0^[2,7]]trideca-1(9), 2(7)-dien-5-yl]pyridin-4-yl]-4-methyl-3-oxopyrazin-2-yl]amino)-2-[(2S)-4-(oxan-4-yl)-2-(trifluoromethyl)piperazin-1-yl]phenyl]prop-2-enamide]",0.43 nM,9.60,Irreversible/covalent inhibition,3.71,74800 ng·h/mL,1.7 h,8.03,excellent selectivity,< 3.70
